BindingDB's records for patent US9365558 (Bristol Myers Squibb, 2016)

Target: 2-acylglycerol O-acyltransferase 2 (Homo sapiens, UniProt Q3SYC2)
Test: LCMS Assay
Conditions: pH 7.4; 65 °C
Experimental: The MGAT enzyme reactions were performed in Corning FALCON® 96-well Polypropylene plates, in a total volume of 60 μL of 50 mM Potassium Phosphate buffer pH 7.4, containing a final concentration of 100 μM 2-oleoylglycerol, 15 μM oleoyl-Coenzyme A and 0.0013 μg/μL Human or Mouse MGAT-2 or 0.0026 μg/μL Rat recombinant MGAT-2 membranes expressed in Sf9 cells. Assay plates were run through a fully automated robotics system and shaken for 5 seconds every minute for a total 10 minutes. The reactions were then quenched with 120 μL of ice cold methanol containing 1 μg/mL 1,2-distearoyl-rac-glycerol as the internal standard. Plates were shaken for 2 minutes and spun down to remove protein precipitation. After the spin, samples were transferred to LC/MS compatible PCR plates. For LC/MS analysis, a ThermoFisher Surveyor pump, utilizing a Waters Symmetry C8, 50×2.1 mm column, was used for the chromatography of enzyme products. The buffer system consists of 0.1% formic acid in water with a mobile phase consisting 0.1% formic acid in methanol. The shallow gradient is 90-100% mobile phase in 0.2 min with a total run time of 2.3 min. The first 0.5 minutes of each injection was diverted to waste to eliminate the presence of Phosphate buffer in the enzymatic reaction. The column was run at 0.6 mL/min and a temperature of 65° C.

Sequence of 2-acylglycerol O-acyltransferase 2 (Q3SYC2 whole entry): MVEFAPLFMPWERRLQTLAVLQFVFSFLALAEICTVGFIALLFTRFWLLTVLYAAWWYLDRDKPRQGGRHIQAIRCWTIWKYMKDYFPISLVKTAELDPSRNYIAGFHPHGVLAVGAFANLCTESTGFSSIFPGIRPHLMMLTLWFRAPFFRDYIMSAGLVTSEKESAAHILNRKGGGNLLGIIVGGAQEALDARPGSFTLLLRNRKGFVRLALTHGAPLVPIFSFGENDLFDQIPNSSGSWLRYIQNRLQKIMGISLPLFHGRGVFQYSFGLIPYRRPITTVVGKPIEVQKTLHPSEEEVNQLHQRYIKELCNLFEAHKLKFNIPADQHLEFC

IC50 [nM] | Structure (SMILES)
38 | Cc1ccc(C2=C(C(=O)NS(=O)(=O)N(C)C)C(=O)N[C@@](c3ccc(OCCCC(F)(F)F)cc3)(C(F)(F)F)C2)cc1 [US9365558, 31]
40 | CC(C)(C)n1ccc(C2=C(C(=O)NS(=O)(=O)C3CC3)C(=O)N[C@@](c3ccc(OCCCCCC(F)(F)F)cc3)(C(F)(F)F)C2)n1 [US9365558, 80]
